Assay results: patent US8575091B1, “Amylin analogues and pharmaceutical compositions thereof” (Novo Nordisk A/S, priority 2012, dated 2013)
Numbered stars: 1 amine (or outer) side, 2 acyl side, 3 side chain; on linkers, the order of the positions; unused ones are H or OH. Bridge positions count the residues as written; N and C are the ends. Side chains are listed from the residue outwards. Peptide text beside a SMILES is read from it. * marks the point of attachment. C20 diacid = O=C(O)CCCCCCCCCCCCCCCCCCC(=O)*; γGlu = O=C(O)[C@H](CCC(=O)[*:2])N[*:1]; AEEA = NCCOCCOCC(=O)O

How the values were obtained:
[1] = molecular target: T1, human amylin receptor (amylin 3(a) receptor: human calcitonin receptor + RAMP-3) (Homo sapiens, UniProt O60896+P30988); assay: Assay (II)a functional assay, human amylin receptor (CRE luciferase, BHK cells); format: cell-based
T1 construct: expressed in transfected cells
T1 sequence (P30988 25-474): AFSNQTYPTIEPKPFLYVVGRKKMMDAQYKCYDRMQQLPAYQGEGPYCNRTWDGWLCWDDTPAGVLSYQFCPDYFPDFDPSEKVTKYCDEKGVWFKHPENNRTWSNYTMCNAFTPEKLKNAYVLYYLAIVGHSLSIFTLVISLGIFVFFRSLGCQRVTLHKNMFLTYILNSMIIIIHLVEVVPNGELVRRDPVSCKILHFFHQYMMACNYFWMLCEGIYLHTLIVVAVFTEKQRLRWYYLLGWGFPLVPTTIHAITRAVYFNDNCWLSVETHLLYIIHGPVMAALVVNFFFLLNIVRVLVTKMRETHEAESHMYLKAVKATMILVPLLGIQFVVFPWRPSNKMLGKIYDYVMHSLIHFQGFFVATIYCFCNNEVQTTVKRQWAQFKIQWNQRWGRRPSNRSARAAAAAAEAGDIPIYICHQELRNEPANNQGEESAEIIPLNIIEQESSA
T1 sequence (O60896 24-148 partner): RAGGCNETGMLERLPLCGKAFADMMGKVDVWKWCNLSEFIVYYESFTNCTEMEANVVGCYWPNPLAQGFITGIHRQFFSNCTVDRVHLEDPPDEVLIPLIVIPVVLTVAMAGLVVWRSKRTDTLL

[2] = Assay (III) ThT fibrillation assay for physical stability; format: physicochemical
From the text: Assay (III)—ThT Fibrillation Assays for the Assessment of Physical Stability of Protein Formulations Low physical stability of a polypeptide may lead to amyloid fibril formation, which is observed as well-ordered, thread-like macromolecular structures in the sample eventually resulting in gel formation. This has traditionally been measured by visual inspection of the sample. However, that kind of measurement is very subjective and depending on the observer. Therefore, the application of a small molecule indicator probe is much more advantageous. Thioflavin T (ThT) is such a probe and has a distinct fluorescence signature when binding to fibrils [Naiki et al. (1989) Anal. […] LeVine (1999) Methods. Enzymol. […], 274-284]. The time course for fibril formation can be described by a sigmoidal curve with the following expression [Nielsen et al. (2001) Biochemistry 40, 6036-6046]: […] Here, F is the ThT fluorescence at the time t. The constant t0 is the time needed to reach 50% of maximum fluorescence. […] Incubation and Fluorescence Measurement Incubation at given temperature, shaking and measurement of the ThT fluorescence emission were done in a Fluoroskan Ascent FL fluorescence platereader or Varioskan platereader (Thermo Labsystems). […] Fluorescence measurement was done using excitation through a 444 nm filter and measurement of emission through a 485 nm filter. […] The plate was measured every 20 minutes for a desired period of time. […] However, since full sigmodial curves in this case are not always achieved during the measurement time, the degree of fibrillation is expressed as ThT fluorescence tabulated as the mean of the samples and shown with the standard deviation at various time points. Measurement of Initial and Final Concentrations The polypeptide concentration in each of the tested formulations were measured both before application in the ThT fibrillation assay (“Initial”) and after completion of the ThT fibrillation (“After ThT assay”). Concentrations were determined by reverse HPLC methods using a pramlintide standard as a reference. […]

[3] = molecular target: T2, human calcitonin receptor (Homo sapiens, UniProt P30988); assay: Assay (II)a functional assay, human calcitonin receptor (CRE luciferase, BHK cells);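 further: luminescence from a CRE-driven luciferase reporter, read by single photon counting after cells were exposed to test samples for 3 h at 37 °C under 5% CO2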; format: cell-based; settings: read-out: hCTR funct. EC50
T2 construct: expressed in transfected cells
T2 sequence (P30988 25-474): T1 sequence (P30988 25-474)

[4] = molecular target: T2, human calcitonin receptor; assay: Assay (VII) binding to the human calcitonin receptor (SPA, 125I-Calcitonin); settings: read-out: hCTR bind IC50;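 further: cell membranes coupled to SPA beads, competitive displacement read by scintillation counting, IC50 derived from a one-site competition fit as a measure of receptor affinity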
human amylin receptor = molecular target: T3, human amylin receptor (Homo sapiens, UniProt O60896+P30988); assay: Assay (V) binding to the human amylin receptor (SPA, 125I-rat amylin); settings: human amylin receptor membranes, SPA; read-out: hAmylin-R bind IC50
T3 construct: expressed in transfected cells
T3 sequence (P30988 25-474): T1 sequence (P30988 25-474)
T3 sequence (O60896 24-148 partner): T1 sequence (O60896 24-148 partner)
In short: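 IC50, taken as receptor affinity, came from one-site binding competition analysis of scintillation proximity counts. Amylin 3(a)/CRE-luc cell membranes (35 ng/μL final) were mixed with SPA beads (0.05 mg/well) in 50 mM Hepes pH 7.4 containing CaCl2, MgCl2, 0.1% OA and 0.02% Tween20.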

Structure (SMILES)	Ratio hCT/hAmylin funct. ([1]; Table 6, human functional selectivity (hCTR EC50 / hAmylin-R EC50))	ThT pH 4.0 recovery (%) [2]	EC50 [3]	EC50 ([1]; functional assay, human amylin receptor, read-out: hAmylin-R funct. EC50)	IC50 [4]	IC50 (human amylin receptor)
CC[C@H](C)[C@H](NC(=O)[C@H](C)NC(=O)CNC(=O)[C@H](Cc1ccccc1)NC(=O)[C@H](CC(N)=O)NC(=O)[C@@H]1CCCN1C(=O)[C@H](CO)NC(=O)[C@H](CO)NC(=O)[C@H](Cc1c[nH]cn1)NC(=O)[C@H](CCCNC(=N)N)NC(=O)[C@H](CC(C)C)NC(=O)[C@H](Cc1ccccc1)NC(=O)[C@H](C)NC(=O)[C@H](C)NC(=O)[C@H](CC(C)C)NC(=O)[C@H](CCCNC(=N)N)NC(=O)[C@H](CCC(N)=O)NC(=O)[C@@H](NC(=O)[C@H](C)NC(=O)[C@@H]1CSSC[C@H](NC(=O)[C@H](CCCNC(=N)N)NC(=O)CNC(=O)CC[C@H](NC(=O)CCCCCCCCCCCCCCCCCCC(=O)O)C(=O)O)C(=O)N[C@@H](CC(N)=O)C(=O)N[C@@H]([C@@H](C)O)C(=O)N[C@@H](C)C(=O)N[C@@H]([C@@H](C)O)C(=O)N1)[C@@H](C)O)C(=O)N1CCC[C@H]1C(=O)N[C@@H](CO)C(=O)N[C@@H](CO)C(=O)N[C@H](C(=O)N[C@@H](CC(N)=O)C(=O)N[C@H](C(=O)NCC(=O)N1CCC[C@H]1C(=O)N[C@@H](CC(N)=O)C(=O)N[C@H](C(=O)N[C@@H](Cc1ccc(O)cc1)C(N)=O)[C@@H](C)O)C(C)C)[C@@H](C)O [Example 103] ({C20 diacid-γGlu}-GRCNTATCATQRLAAFLRHSSPNFGAIPSSTNVGPNTY-NH2; disulfide 3-8 (inferred); C-terminus assumed)	2.1	82%	–	–	–	–
CC[C@H](C)[C@H](NC(=O)[C@H](C)NC(=O)CNC(=O)[C@H](Cc1ccccc1)NC(=O)[C@H](CC(N)=O)NC(=O)[C@@H]1CCCN1C(=O)[C@H](CO)NC(=O)[C@H](CO)NC(=O)[C@H](Cc1c[nH]cn1)NC(=O)[C@H](CCCNC(=N)N)NC(=O)[C@H](CC(C)C)NC(=O)[C@H](Cc1ccccc1)NC(=O)[C@H](CO)NC(=O)[C@H](C)NC(=O)[C@H](CC(C)C)NC(=O)[C@H](CCCNC(=N)N)NC(=O)[C@H](CCC(N)=O)NC(=O)[C@@H](NC(=O)[C@H](C)NC(=O)[C@@H]1CSSC[C@H](NC(=O)[C@@H](N)CCCCNC(=O)COCCOCCNC(=O)CC[C@H](NC(=O)CCCCCCCCCCCCCCCCCCC(=O)O)C(=O)O)C(=O)N[C@@H](CC(N)=O)C(=O)N[C@@H]([C@@H](C)O)C(=O)N[C@@H](C)C(=O)N[C@@H]([C@@H](C)O)C(=O)N1)[C@@H](C)O)C(=O)N1CCC[C@H]1C(=O)N[C@@H](CO)C(=O)N[C@@H](CO)C(=O)N[C@H](C(=O)N1CCC[C@H]1C(=O)N[C@H](C(=O)NCC(=O)N[C@@H](CO)C(=O)N[C@@H](CC(N)=O)C(=O)N[C@H](C(=O)N[C@@H](Cc1ccc(O)cc1)C(N)=O)[C@@H](C)O)C(C)C)[C@@H](C)O [Example 73] (H-K([AEEA-γGlu-C20 diacid])CNTATCATQRLASFLRHSSPNFGAIPSSTPVGSNTY-NH2; disulfide 2-7)	–	1%	0.961 nM	0.085 nM	5.38 nM	0.104 nM
CC[C@H](C)[C@H](NC(=O)[C@H](C)NC(=O)CNC(=O)[C@H](Cc1ccccc1)NC(=O)[C@H](CC(N)=O)NC(=O)[C@@H]1CCCN1C(=O)[C@H](CO)NC(=O)[C@H](CO)NC(=O)[C@H](Cc1c[nH]cn1)NC(=O)[C@H](CCCNC(=N)N)NC(=O)[C@H](CC(C)C)NC(=O)[C@H](Cc1ccccc1)NC(=O)[C@H](CCCCN)NC(=O)[C@H](C)NC(=O)[C@H](CC(C)C)NC(=O)[C@H](CCCNC(=N)N)NC(=O)[C@H](CCC(N)=O)NC(=O)[C@@H](NC(=O)[C@H](C)NC(=O)[C@@H]1CSSC[C@H](NC(=O)[C@@H](N)CCCCNC(=O)COCCOCCNC(=O)CC[C@H](NC(=O)CCCCCCCCCCCCCCCCCCC(=O)O)C(=O)O)C(=O)N[C@@H](CC(N)=O)C(=O)N[C@@H]([C@@H](C)O)C(=O)N[C@@H](C)C(=O)N[C@@H]([C@@H](C)O)C(=O)N1)[C@@H](C)O)C(=O)N1CCC[C@H]1C(=O)N[C@@H](CO)C(=O)N[C@@H](CO)C(=O)N[C@H](C(=O)N1CCC[C@H]1C(=O)N[C@H](C(=O)NCC(=O)N[C@@H](CO)C(=O)N[C@@H](CC(N)=O)C(=O)N[C@H](C(=O)N[C@@H](Cc1ccc(O)cc1)C(N)=O)[C@@H](C)O)C(C)C)[C@@H](C)O [Example 74] (H-K([AEEA-γGlu-C20 diacid])CNTATCATQRLAKFLRHSSPNFGAIPSSTPVGSNTY-NH2; disulfide 2-7 (inferred); N-terminus and C-terminus assumed)	–	87%	–	–	–	–
